Experimental data taken from ChEMBL document CHEMBL5325486, “Synthesis of novobiocin derivatives and evaluation of their antigonococcal activity and pharmacokinetics” (Bioorg Med Chem, 2023).
Converted amounts (≈) assume the structure as drawn.

What was measured:
Staphylococcus aureus = test: Antibacterial activity against Staphylococcus aureus assessed inhibition of bacterial growth; assay type: functional
Neisseria gonorrhoeae [1] = test: Antibacterial activity against resistant Neisseria gonorrhoeae assessed inhibition of bacterial growth; assay type: functional
Neisseria gonorrhoeae [2] = test: Antibacterial activity against Neisseria gonorrhoeae clinical isolate assessed inhibition of bacterial growth; assay type: functional
[3] = Aqueous solubility of compound in acidic JP1 solution; assay type: physicochemical
[4] = Aqueous solubility of compound in neutral JP2 solution; assay type: physicochemical
[5] = Metabolic stability in mouse liver microsomes assessed as residual rate; assay type: ADME, Microsome
[6] = Effective permeability of compound by PAMPA assay; assay type: ADME; details: read-out: Peff
Neisseria gonorrhoeae [7] = test: Antibacterial activity against azithromycin resistant Neisseria gonorrhoeae assessed inhibition of bacterial growth; assay type: functional
Neisseria gonorrhoeae [8] = test: Antibacterial activity against ceftriaxone intermediate resistant Neisseria gonorrhoeae assessed inhibition of bacterial growth; assay type: functional
[9] = JP1 solution, read-out: solubility
[10] = JP2 solution, read-out: solubility

SMILES | MIC50 (Staphylococcus aureus) [µg/mL] | MIC90 (Staphylococcus aureus) [µg/mL] | MIC50 (Neisseria gonorrhoeae [1]) [µg/mL] | MIC90 (Neisseria gonorrhoeae [1]) [µg/mL] | MIC90 (Neisseria gonorrhoeae [2]) [µg/mL] | solubility [3, 9] [µM] | solubility [4, 10] [µM] | Stability [5] [%] | Papp [6] [×10⁻⁶ cm/s] | MIC (Neisseria gonorrhoeae [7]) [µg/mL] | MIC (Neisseria gonorrhoeae [8]) [µg/mL] | solubility ([3]; buffer) [µM] | solubility ([4]; buffer) [µM]
CO[C@@H]1[C@@H](OC(=O)c2ccc(C)[nH]2)[C@@H](O)[C@H](Oc2ccc3c(O)c(NC(=O)c4c(C)ncn4CC=C(C)C)c(=O)oc3c2C)OC1(C)C | 0.5 (≈ 0.752 µM) | 0.5 (≈ 0.752 µM) | 0.5 (≈ 0.752 µM) | 0.5 (≈ 0.752 µM) |  |  |  |  |  |  |  |  | 
CO[C@@H]1[C@@H](OC(=O)c2ccc(C)[nH]2)[C@@H](O)[C@H](Oc2ccc3c(O)c(NC(=O)c4ccnc(N)c4)c(=O)oc3c2C)OC1(C)C | 2 (≈ 3.29 µM) | 2 (≈ 3.29 µM) | 0.5 (≈ 0.822 µM) | 1 (≈ 1.64 µM) |  |  |  |  |  |  |  |  | 
CO[C@@H]1[C@@H](OC(=O)c2ccc(C)[nH]2)[C@@H](O)[C@H](Oc2ccc3c(O)c(NC(=O)c4ccnc(N(C)C)c4)c(=O)oc3c2C)OC1(C)C | 0.5 (≈ 0.785 µM) | 0.5 (≈ 0.785 µM) | 0.5 (≈ 0.785 µM) | 0.5 (≈ 0.785 µM) |  |  |  |  |  |  |  |  | 
CO[C@@H]1[C@@H](OC(=O)c2ccc(C)[nH]2)[C@@H](O)[C@H](Oc2ccc3c(O)c(NC(=O)c4cscn4)c(=O)oc3c2C)OC1(C)C | 0.5 (≈ 0.834 µM) | 0.5 (≈ 0.834 µM) | 0.5 (≈ 0.834 µM) | 0.5 (≈ 0.834 µM) |  |  |  |  |  |  |  |  | 
C#CCONC(=O)O[C@H]1[C@@H](O)[C@H](Oc2ccc3c(O)c(NC(=O)c4ccc(O)c(CC=C(C)C)c4)c(=O)oc3c2C)OC(C)(C)[C@@H]1OC | 0.063 (≈ 0.0945 µM) | 0.063 (≈ 0.0945 µM) | 0.25 (≈ 0.375 µM) | 0.5 (≈ 0.75 µM) | 0.125 (≈ 0.187 µM) | < 1 | 69.3 (≈ 46.2 µg/mL) | 47.2 | 1.14 |  |  |  | 
CO[C@@H]1[C@@H](OC(=O)c2ccc(C)[nH]2)[C@@H](O)[C@H](Oc2ccc3c(O)c(NC(=O)c4ccnc(C)c4)c(=O)oc3c2C)OC1(C)C | 0.5 (≈ 0.823 µM) | 1 (≈ 1.65 µM) | 0.25 (≈ 0.411 µM) | 0.5 (≈ 0.823 µM) |  | 55 (≈ 33.4 µg/mL) | 71.8 (≈ 43.6 µg/mL) | 120 | 0.349 |  |  |  | 
CO[C@@H]1[C@@H](OC(=O)c2ccc(C)[nH]2)[C@@H](O)[C@H](Oc2ccc3c(O)c(NC(=O)CN(C)C)c(=O)oc3c2C)OC1(C)C | 1 (≈ 1.74 µM) | 2 (≈ 3.49 µM) | 2 (≈ 3.49 µM) | 4 (≈ 6.97 µM) |  | > 100 | > 100 |  |  |  |  |  | 
CO[C@@H]1[C@@H](OC(=O)c2ccc(C)[nH]2)[C@@H](O)[C@H](Oc2ccc3c(O)c(NC(=O)c4cn(C)c(CCC(C)C)n4)c(=O)oc3c2C)OC1(C)C | 0.25 (≈ 0.375 µM) | 0.25 (≈ 0.375 µM) | 0.5 (≈ 0.75 µM) | 1 (≈ 1.5 µM) |  |  |  |  |  |  |  |  | 
CO[C@@H]1[C@@H](OC(=O)c2ccc(C)[nH]2)[C@@H](O)[C@H](Oc2ccc3c(O)c(NC(=O)CCN(C)C)c(=O)oc3c2C)OC1(C)C | 2 (≈ 3.4 µM) | 4 (≈ 6.81 µM) | 16 (≈ 27.2 µM) | 32 (≈ 54.5 µM) |  | > 100 | > 100 |  |  |  |  |  | 
CO[C@@H]1[C@@H](OC(=O)c2ccc(C)[nH]2)[C@@H](O)[C@H](Oc2ccc3c(O)c(NC(=O)c4c[nH]cn4)c(=O)oc3c2C)OC1(C)C | 1 (≈ 1.72 µM) | 1 (≈ 1.72 µM) | 1 (≈ 1.72 µM) | 1 (≈ 1.72 µM) |  |  |  |  |  |  |  |  | 
CO[C@@H]1[C@@H](OC(=O)c2ccc(C)[nH]2)[C@@H](O)[C@H](Oc2ccc3c(O)c(NC(=O)c4cn(CC5CC5)cn4)c(=O)oc3c2C)OC1(C)C | 0.5 (≈ 0.785 µM) | 0.5 (≈ 0.785 µM) | 0.5 (≈ 0.785 µM) | 1 (≈ 1.57 µM) |  |  |  |  |  |  |  |  | 
CO[C@@H]1[C@@H](OC(=O)c2ccc(C)[nH]2)[C@@H](O)[C@H](Oc2ccc3c(O)c(NC(=O)c4cn(C)cn4)c(=O)oc3c2C)OC1(C)C | 0.5 (≈ 0.838 µM) | 0.5 (≈ 0.838 µM) | 0.25 (≈ 0.419 µM) | 0.5 (≈ 0.838 µM) | 0.25 (≈ 0.419 µM) | > 80 | > 80 | 119 | 1.61 |  |  |  | 
CO[C@@H]1[C@@H](OC(=O)c2ccc(C)[nH]2)[C@@H](O)[C@H](Oc2ccc3c(O)c(NC(=O)c4sc5nccn5c4C)c(=O)oc3c2C)OC1(C)C | 0.5 (≈ 0.766 µM) | 1 (≈ 1.53 µM) | 0.5 (≈ 0.766 µM) | 0.5 (≈ 0.766 µM) |  |  |  |  |  |  |  |  | 
C=Cc1cc(C(=O)Nc2c(O)c3ccc(O[C@@H]4OC(C)(C)[C@H](OC)[C@@H](OC(=O)c5ccc(C)[nH]5)[C@H]4O)c(C)c3oc2=O)ccc1N | 0.25 (≈ 0.395 µM) | 0.5 (≈ 0.789 µM) | 0.25 (≈ 0.395 µM) | 0.5 (≈ 0.789 µM) | 0.25 (≈ 0.395 µM) | 1.79 (≈ 1.13 µg/mL) | 65.8 (≈ 41.7 µg/mL) | 104 | 8.06 |  |  |  | 
CO[C@@H]1[C@@H](OC(=O)c2ccc(C)[nH]2)[C@@H](O)[C@H](Oc2ccc3c(O)c(NC(=O)c4ccc(O)c(CC=C(C)C)c4)c(=O)oc3c2C)OC1(C)C | 0.008 (≈ 0.0118 µM) | 0.08 (≈ 0.118 µM) | 0.063 (≈ 0.0931 µM) | 0.125 (≈ 0.185 µM) | 0.063 (≈ 0.0931 µM) | < 1 | 69.2 (≈ 46.8 µg/mL) | 92.7 | 10.3 | 0.008 (≈ 0.0118 µM) | 0.063 (≈ 0.0931 µM) |  | 
CO[C@@H]1[C@@H](OC(=O)c2ccc(C)[nH]2)[C@@H](O)[C@H](Oc2ccc3c(O)c(NC(=O)Cn4c(-c5ccccn5)nc5ccccc54)c(=O)oc3c2C)OC1(C)C | 0.25 (≈ 0.345 µM) | 0.5 (≈ 0.691 µM) | 0.5 (≈ 0.691 µM) | 0.5 (≈ 0.691 µM) |  |  |  |  |  |  |  |  | 
CCCn1cnc(C(=O)Nc2c(O)c3ccc(O[C@@H]4OC(C)(C)[C@H](OC)[C@@H](OC(=O)c5ccc(C)[nH]5)[C@H]4O)c(C)c3oc2=O)c1 | 0.5 (≈ 0.8 µM) | 0.5 (≈ 0.8 µM) | 1 (≈ 1.6 µM) | 1 (≈ 1.6 µM) |  |  |  |  |  |  |  |  | 
CO[C@@H]1[C@@H](OC(=O)c2ccc(C)[nH]2)[C@@H](O)[C@H](Oc2ccc3c(O)c(NC(=O)c4csc(C)n4)c(=O)oc3c2C)OC1(C)C | 0.25 (≈ 0.407 µM) | 0.25 (≈ 0.407 µM) | 0.25 (≈ 0.407 µM) | 0.5 (≈ 0.815 µM) |  |  |  |  |  |  |  |  | 
CO[C@@H]1[C@@H](OC(=O)c2ccc(C)[nH]2)[C@@H](O)[C@H](Oc2ccc3c(O)c(NC(=O)c4cn(Cc5ccccn5)cn4)c(=O)oc3c2C)OC1(C)C | 0.25 (≈ 0.371 µM) | 0.5 (≈ 0.742 µM) | 0.5 (≈ 0.742 µM) | 0.5 (≈ 0.742 µM) |  |  |  |  |  |  |  |  | 
CO[C@@H]1[C@@H](OC(=O)c2ccc(C)[nH]2)[C@@H](O)[C@H](Oc2ccc3c(O)c(NC(=O)c4cn(Cc5cccc(C(F)(F)F)c5)cn4)c(=O)oc3c2C)OC1(C)C | 0.125 (≈ 0.169 µM) | 0.25 (≈ 0.338 µM) | 0.25 (≈ 0.338 µM) | 0.5 (≈ 0.675 µM) |  |  |  |  |  |  |  |  | 
CO[C@@H]1[C@@H](OC(=O)c2ccc(C)[nH]2)[C@@H](O)[C@H](Oc2ccc3c(O)c(NC(=O)c4cncn4C)c(=O)oc3c2C)OC1(C)C | 0.5 (≈ 0.838 µM) | 0.5 (≈ 0.838 µM) | 0.5 (≈ 0.838 µM) | 1 (≈ 1.68 µM) |  |  |  |  |  |  |  |  | 
CO[C@@H]1[C@@H](OC(=O)c2ccc(C)[nH]2)[C@@H](O)[C@H](Oc2ccc3c(O)c(NC(=O)c4ccc(C)c(C)c4)c(=O)oc3c2C)OC1(C)C | 0.016 (≈ 0.0258 µM) | 0.016 (≈ 0.0258 µM) | 0.125 (≈ 0.201 µM) | 0.125 (≈ 0.201 µM) | 0.25 (≈ 0.403 µM) | < 1 | 79.1 (≈ 49.1 µg/mL) | 80.8 | 18 |  |  |  | 
CC[C@H]1OC(=O)[C@H](C)[C@@H](O[C@H]2C[C@@](C)(OC)[C@@H](O)[C@H](C)O2)[C@H](C)[C@@H](O[C@@H]2O[C@H](C)C[C@H](N(C)C)[C@H]2O)[C@](C)(O)C[C@@H](C)CN(C)[C@H](C)[C@@H](O)[C@]1(C)O [AZITHROMYCIN] | > 128 | > 128 | 0.25 (≈ 0.334 µM) | 8 (≈ 10.7 µM) |  |  |  |  |  |  |  |  | 
CO/N=C(\C(=O)N[C@@H]1C(=O)N2C(C(=O)O)=C(CSc3nc(=O)c(O)nn3C)CS[C@H]12)c1csc(N)n1 [CEFTRIAXONE] | 1 (≈ 1.8 µM) | > 128 | 0.008 (≈ 0.0144 µM) | 0.25 (≈ 0.451 µM) |  |  |  |  |  |  |  |  | 
O=c1ccc2ncc(=O)n3c2n1C[C@H]3CN1CCC(NCc2cc3c(cn2)OCCC3)CC1 [GEPOTIDACIN] |  |  |  |  | 0.5 (≈ 1.11 µM) |  |  | 107 | 4.19 |  |  | 63.4 (≈ 28.4 µg/mL) | 67 (≈ 30.1 µg/mL)
CO[C@@H]1[C@@H](OC(N)=O)[C@@H](O)[C@H](Oc2ccc3c(O)c(NC(=O)c4ccc(O)c(CC=C(C)C)c4)c(=O)oc3c2C)OC1(C)C [NOVOBIOCIN] | 0.25 (≈ 0.408 µM) | 0.25 (≈ 0.408 µM) | 1 (≈ 1.63 µM) | 2 (≈ 3.26 µM) |  |  |  |  |  |  |  |  | 
CC[C@H]1OC(=O)[C@@](C)(F)C(=O)[C@H](C)[C@@H](O[C@@H]2O[C@H](C)C[C@H](N(C)C)[C@H]2O)[C@](C)(OC)C[C@@H](C)C(=O)[C@H](C)[C@H]2N(CCCCn3cc(-c4cccc(N)c4)nn3)C(=O)O[C@]12C [SOLITHROMYCIN] |  |  |  |  | 0.25 (≈ 0.296 µM) | > 80 | 49.4 (≈ 41.7 µg/mL) | 104 | 0.653 |  |  |  | 
C[C@@H]1CN2c3c(cc4c(N5C(=O)OC[C@@H]5C)noc4c3F)CC3(C(=O)NC(=O)NC3=O)[C@H]2[C@H](C)O1 [ZOLIFLODACIN] |  |  |  |  | 0.063 (≈ 0.129 µM) | 66.3 (≈ 32.3 µg/mL) | 66 (≈ 32.2 µg/mL) | 94.3 | 0.039 |  |  |  | 
